Test results: patent US20100160335A1, “PYRIDAZINONE DERIVATIVE AND PDE INHIBITOR CONTAINING THE SAME AS ACTIVE INGREDIENT” (KYORIN PHARMACEUTICAL CO., LTD., priority 2007, published 2010)

Key:
[1] = biological target: T1, PDE4Bcat (Homo sapiens, UniProt Q07343); experiment: Phosphodiesterase inhibitory activity, PDE4 ([3H]cAMP, recombinant enzyme); assay type: biochemical; settings: 30° C., 20 minutes, read-out: IC50(μmol/L) PDE4
T1 construct: made in house; host or cells: Sf9 insect cells (baculovirus, Bac-to-Bac / Gateway)
T1 sequence (Q07343 330-659 limits assumed): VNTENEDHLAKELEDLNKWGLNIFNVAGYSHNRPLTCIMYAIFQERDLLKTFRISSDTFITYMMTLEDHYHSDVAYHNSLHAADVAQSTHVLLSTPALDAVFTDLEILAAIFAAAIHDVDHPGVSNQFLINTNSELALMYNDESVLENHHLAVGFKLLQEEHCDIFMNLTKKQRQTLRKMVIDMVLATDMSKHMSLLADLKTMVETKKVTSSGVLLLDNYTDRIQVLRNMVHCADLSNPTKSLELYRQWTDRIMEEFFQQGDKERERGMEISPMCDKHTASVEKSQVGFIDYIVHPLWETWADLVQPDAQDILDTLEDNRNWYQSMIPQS

[2] = biological target: T2, PDE3A catalytic domain (PDE3Acat) (Homo sapiens, UniProt Q14432); experiment: Phosphodiesterase inhibitory activity, PDE3 ([3H]cAMP, recombinant enzyme); assay type: biochemical; settings: 30° C., 20 minutes, read-out: IC50(μmol/L) PDE3
T2 construct: made in house; host or cells: Sf9 insect cells (baculovirus, Bac-to-Bac / Gateway)
T2 sequence (Q14432 674-1093 limits assumed): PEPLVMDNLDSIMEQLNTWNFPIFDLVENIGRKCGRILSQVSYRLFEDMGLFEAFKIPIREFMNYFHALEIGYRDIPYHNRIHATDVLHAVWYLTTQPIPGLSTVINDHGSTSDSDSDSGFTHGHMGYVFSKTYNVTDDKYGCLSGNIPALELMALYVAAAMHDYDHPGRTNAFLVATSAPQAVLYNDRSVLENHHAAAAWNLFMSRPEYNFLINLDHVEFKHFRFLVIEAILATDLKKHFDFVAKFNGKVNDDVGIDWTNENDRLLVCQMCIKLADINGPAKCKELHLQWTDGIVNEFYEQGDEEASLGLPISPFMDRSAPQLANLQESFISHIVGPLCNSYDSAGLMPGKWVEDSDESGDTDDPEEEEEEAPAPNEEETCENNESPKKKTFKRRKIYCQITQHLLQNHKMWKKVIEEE

[3] = system: histamine-induced bronchoconstriction in guinea pigs; experiment: Histamine-induced bronchoconstriction reaction in guinea pigs; assay type: in vivo; settings: guinea pig, measured 30 seconds after administration; for inhibition in vivo at 0.3 mg/kg / inhibition in vivo at 0.1 mg/kg: Cavia porcellus, iv, 0.5 min, read-out: Inhibition rate (histamine-induced bronchoconstriction); for inhibition in vivo at 0.1 mg/kg: compound 0.1 mg/kg, i.v. (values in [ ])
Description: Guinea pigs were anesthetized with pentobarbital (30 mg/kg, i.p.). A cannula for intravenous administration was inserted into the left external jugular vein, a cannula for collecting blood and measuring blood pressure was inserted into the right internal carotid artery, and a tracheal cannula was inserted into the trachea. The guinea pigs were maintained on artificial respiration under the conditions of 60 times/min and 10 mL/kg/stroke. The airflow from the side branch of the tracheal cannula was measured by a bronchospasm transducer (Ugo-Basile) and recorded on a computer via Power Lab (ADInstruments Japan). The guinea pigs were immobilized with gallamine (10 mg/kg, i.v.), and histamine (12.5 μg/kg, i.v.) was administered at 10-minute intervals. After the histamine-induced bronchoconstriction became stable, the compound (0.3 mg/kg, i.v.) was administered. The histamine-induced bronchoconstriction reaction was measured 30 seconds after the compound administration to examine the bronchoconstriction inhibitory activity of the compound. The bronchoconstriction was recorded as the airflow value, and the results were represented by the ratio of the maximum value of the histamine- induced airflow 30 seconds after the administration to the maximum value of the airflow before the administration. Also, the test compounds dissolved in DMSO were used. Further, the indications were as follows: inhibition rate≧90% (+++), 90%>inhibition rate≧80% (++), and 80%>inhibition rate≧70% (+). [ ] means the results in the case of 0.1 mg/kg, i.v.

IC50 [1] [µmol/L]	IC50 [2] [µmol/L]	Structure (SMILES)	Inhibition rate (histamine-induced bronchoconstriction) ([3]; compound 0.3 mg/kg, i.v.)	inhibition in vivo at 0.3 mg/kg ([3]; compound 0.3 mg/kg, i.v.) [%]	inhibition in vivo at 0.1 mg/kg [3] [%]
0.1 to 1	< 0.1	CCc1ccc2c(C3=NN(CCCCOc4ccc(C5=NNC(=O)CC5C)cc4)C(=O)CC3C)ccc(OC)c2n1 (single isomer, unassigned) [Example 342, 6-(2-Ethyl-8-methoxyquinolin-5-yl)-5-methyl-2-[4-[4-(4-methyl-6-oxo-1,4,5,6-tetrahydropyridazin-3-yl)phenoxy]butyl]-4,5-dihydro-2H-pyridazin-3-one]	+++ (inhibition rate≧90% (+++))		
< 0.1	0.1 to 1	COc1ccc(C2=NN(CCCCOc3ccc(C4=NNC(=O)CC4C)cc3)C(=O)CC2C)c2ccc(C)nc12 (centres unmarked) [Example 267, 6-(8-Methoxy-2-methylquinolin-5-yl)-5-methyl-2-[4-[4-(4-methyl-6-oxo-1,4,5,6-tetrahydropyridazin-3-yl)phenoxy]butyl]-4,5-dihydro-2H-pyridazin-3-one]		≥ 90	
0.1 to 1	< 0.1	COc1ccc(C2=NN(CCCCOc3ccc(C4=NNC(=O)CC4C)cc3)C(=O)CC2C)c2ccc(C(C)C)nc12 (centres unmarked) [Example 269, 6-(8-Methoxy-2-isopropylquinolin-5-yl)-5-methyl-2-[4-[4-(4-methyl-6-oxo-1,4,5,6-tetrahydropyridazin-3-yl)phenoxy]butyl]-4,5-dihydro-2H-pyridazin-3-one]			80 to 90
< 0.1	0.1 to 1	COc1ccc(-c2ccc(=O)n(CCCCOc3ccc(C4=NNC(=O)CC4)cc3F)n2)c2ccc(C)nc12 [Example 272, 2-[4-[2-Fluoro-4-(6-oxo-1,4,5,6-tetrahydropyridazin-3-yl)phenoxy]butyl}-6-(8-methoxy-2-methylquinolin-5-yl)-2H-pyridazin-3-one]		70 to 80	
< 0.1	< 0.1	COc1ccc(-c2ccc(=O)n(CCCCOc3ccc(C4=NNC(=O)CC4C)c(F)c3F)n2)c2ccc(C)nc12 (centres unmarked) [Example 273, 2-[4-[2,3-Difluoro-4-(4-methyl-6-oxo-1,4,5,6-tetrahydropyridazin-3-yl)phenoxy]butyl]-6-(8-methoxy-2-methylquinolin-5-yl)-2H-pyridazin-3-one]		≥ 90	
1 to 10	< 0.1	COc1ccc(-c2ccc(=O)n(CCCCOc3ccc(C4=NNC(=O)C4(C)C)c(F)c3F)n2)c2nc(C(F)(F)F)[nH]c12 [Example 277, 2-[4-[2,3-Difluoro-4-(4,4-dimethyl-5-oxo-4,5-dihydro-1H-pyrazol-3-yl)phenoxy]butyl]-6-(4-methoxy-2-trifluoromethyl-1H-benzimidazol-7-yl)-2H-pyridazin-3-one]		80 to 90	
1 to 10	< 0.1	COc1ccc(-c2ccc(=O)n(CCCCOc3ccc(C4=NNC(=O)CC4)c(F)c3F)n2)c2nc(C(F)(F)F)[nH]c12 [Example 278, 2-[4-[2,3-Difluoro-4-(6-oxo-1,4,5,6-tetrahydropyridazin-3-yl)phenoxy]butyl]-6-(4-methoxy-2-trifluoromethyl-1H-benzimidazol-7-yl)-2H-pyridazin-3-one]		≥ 90	
0.1 to 1	< 0.1	COc1ccc(-c2ccc(=O)n(CCCCOc3ccc(C4=NNC(=O)CC4C)c(F)c3F)n2)c2nc(C(F)(F)F)[nH]c12 (centres unmarked) [Example 279, 2-[4-[2,3-Difluoro-4-(4-methyl-6-oxo-1,4,5,6-tetrahydropyridazin-3-yl)phenoxy]butyl]-6-(4-methoxy-2-trifluoromethyl-1H-benzimidazol-7-yl)-2H-pyridazin-3-one]		≥ 90	
< 0.1	< 0.1	CCc1ccc2c(-c3ccc(=O)n(CCCCOc4ccc(C5=NNC(=O)CC5C)cc4F)n3)ccc(OC)c2n1 (centres unmarked) [Example 287, 6-(2-Ethyl-8-methoxyquinolin-5-yl)-2-[4-[2-fluoro-4-(4-methyl-6-oxo-1,4,5,6-tetrahydropyridazin-3-yl)phenoxy]butyl]-2H-pyridazin-3-one]		≥ 90	
0.1 to 1	0.1 to 1	CCc1ccc2c(-c3ccc(=O)n(CCCCOc4ccc(C5=NNC(=O)CC5C)cc4OC)n3)ccc(OC)c2n1 (centres unmarked) [Example 288, 6-(2-Ethyl-8-methoxyquinolin-5-yl)-2-[4-[2-methoxy-4-(4-methyl-6-oxo-1,4,5,6-tetrahydropyridazin-3-yl)phenoxy]butyl]-2H-pyridazin-3-one]		80 to 90	
< 0.1	< 0.1	CCc1ccc2c(-c3ccc(=O)n(CCCCOc4ccc(C5=NNC(=O)C5(C)C)c(F)c4F)n3)ccc(OC)c2n1 [Example 290, 6-(2-Ethyl-8-methoxyquinolin-5-yl)-2-[4-[2,3-difluoro-4-(4,4-dimethyl-5-oxo-4,5-dihydro-1H-pyrazol-3-yl)phenoxy]butyl]-2H-pyridazin-3-one]		≥ 90	
0.1 to 1	1 to 10	CCc1ccc2c(-c3ccc(=O)n(CCCCOc4ccc(C5=NNC(=O)CC5)cc4OC)n3)ccc(OC)c2n1 [Example 291, 6-(2-Ethyl-8-methoxyquinolin-5-yl)-2-[4-[2-methoxy-4-(6-oxo-1,4,5,6-tetrahydropyridazin-3-yl)phenoxy]butyl]-2H-pyridazin-3-one]		70 to 80	
0.1 to 1	1 to 10	CCc1ccc2c(C3=NN(CCCOc4ccc(C5=NNC(=O)CC5C)cc4)C(=O)CC3C)ccc(OC)c2n1 (centres unmarked) [Example 292]		80 to 90	
0.1 to 1	0.1 to 1	CCc1ccc2c(C3=NN(CCCCOc4ccc(C5=NNC(=O)CC5C)cc4OC)C(=O)CC3C)ccc(OC)c2n1 (centres unmarked) [Example 293, 6-(2-Ethyl-8-methoxyquinolin-5-yl)-5-methyl-2-[4-[2-methoxy-4-(4-methyl-6-oxo-1,4,5,6-tetrahydropyridazin-3-yl)phenoxy]butyl]-4,5-dihydro-2H-pyridazin-3-one]			70 to 80
1 to 10	0.1 to 1	COc1ccc(-c2ccc(=O)n(CCCCOc3ccc(C4=NNC(=O)C4(C)C)c(F)c3F)n2)c2cc(C(F)(F)F)sc12 [Example 332, 2-[4-[2,3-Difluoro-4-(4,4-dimethyl-5-oxo-4,5-dihydro-1H-pyrazol-3-yl)phenoxy]butyl]-6-(7-methoxy-2-trifluoromethylbenzo[b]thiophen-4-yl)-2H-pyridazin-3-one]			
0.1 to 1	< 0.1	CCc1nc2c(OC)ccc(-c3ccc(=O)n(CCCCOc4ccc(C5=NNC(=O)CC5)c(F)c4F)n3)c2o1 [Example 333, 6-(2-Ethyl-4-methoxybenzooxazol-7-yl)-2-[4-[2,3-difluoro-4-(6-oxo-1,4,5,6-tetrahydropyridazin-3-yl)phenoxy]butyl]-2H-pyridazin-3-one]			
0.1 to 1	< 0.1	CCc1nc2c(OC)ccc(-c3ccc(=O)n(CCCCOc4ccc(C5=NNC(=O)CC5C)c(F)c4F)n3)c2o1 (centres unmarked) [Example 334, 6-(2-Ethyl-4-methoxybenzooxazol-7-yl)-2-[4-[2,3-difluoro-4-(4-methyl-6-oxo-1,4,5,6-tetrahydropyridazin-3-yl)phenoxy]butyl]-2H-pyridazin-3-one]			
0.1 to 1	0.1 to 1	CCc1nc2c(OC)ccc(-c3ccc(=O)n(CCCCOc4ccc(C5=NNC(=O)C5(C)C)c(F)c4F)n3)c2o1 [Example 335, 6-(2-Ethyl-4-methoxybenzooxazol-7-yl)-2-[4-[2,3-difluoro-4-(4,4-dimethyl-5-oxo-4,5-dihydro-1H-pyrazol-3-yl)phenoxy]butyl]-2H-pyridazin-3-one]			
0.1 to 1	< 0.1	COc1ccc(-c2ccc(=O)n(CCCCOc3ccc(C4=NNC(=O)CC4C)c(F)c3F)n2)n2cc(C(F)(F)F)nc12 (centres unmarked) [Example 336, 2-[4-[2,3-Difluoro-4-(4-methyl-6-oxo-1,4,5,6-tetrahydropyridazin-3-yl)phenoxy]butyl]-6-(8-methoxy-2-trifluoromethylimidazo[1,2-a]pyridin-5-yl)-2H-pyridazin-3-one]			
0.1 to 1	0.1 to 1	COc1ccc(-c2ccc(=O)n(CCCCOc3ccc(C4=NNC(=O)CC4)c(F)c3F)n2)n2cc(C(F)(F)F)nc12 [Example 337, 2-[4-[2,3-Difluoro-4-(6-oxo-1,4,5,6-tetrahydropyridazin-3-yl)phenoxy]butyl]-6-(8-methoxy-2-trifluoromethylimidazo[1,2-a]pyridin-5-yl)-2H-pyridazin-3-one]			
0.1 to 1	0.1 to 1	COc1ccc(-c2ccc(=O)n(CCCCOc3ccc(C4=NNC(=O)C4(C)C)c(F)c3F)n2)n2cc(C(F)(F)F)nc12 [Example 338, 2-[4-[2,3-Difluoro-4-(4,4-dimethyl-5-oxo-4,5-dihydro-1H-pyrazol-3-yl)phenoxy]butyl]-6-(8-methoxy-2-trifluoromethylimidazo[1,2-a]pyridin-5-yl)-2H-pyridazin-3-one]			
